# Measured values from patent US6914051B1, “Penetrating antibiotic gel for soft tissue diseases” (priority 2000, dated 2005).
# Key:
# Chlamydia Pneumoniae = conditions: reported; cited from earlier work
# [1] = test system: cervical/lumbosacral disc disease; test: Clinical injection/arthroscopic application of azithromycin with liposome in disc disease; format: in vivo, human; conditions: two occasions, applied with a liposome and another anti-inflammatory at surgical arthroscopy of the intervertebral disc
# Description: The therapy of the present invention was also observed to be effective in clinical treatment of cervical/lumbosacral disc disease.
# [2] = test system: severe acute lower back pain; conditions: short-term oral treatment; effect not seen three or so days after onset; cited from earlier work
# phospholipase A2 = conditions: VanBebeke et al, 1994; cited from earlier work
SMILES,potency against Chlamydia Pneumoniae (Chlamydia Pneumoniae),relief of the patients' severe pain [1],response of severe acute lower back pain [2],effect on neurotoxic phospholipase A2 (phospholipase A2)
Cc1c(F)c(N2CCNC(C)C2)cc2c1c(=O)c(C(=O)O)cn2C1CC1 (centres unmarked) [Grepafloxacin],good potency,,,
"CC[C@H]1OC(=O)[C@H](C)[C@@H](O[C@H]2C[C@@](C)(OC)[C@@H](O)[C@H](C)O2)[C@H](C)[C@@H](O[C@@H]2O[C@H](C)C[C@H](N(C)C)[C@H]2O)[C@](C)(O)C[C@@H](C)CN(C)[C@H](C)[C@@H](O)[C@]1(C)O [azithromycin, azithromycin dihydrate]",,good and immediate relief,respond dramatically,direct effect in mitigating the effects
CO[C@H]1/C=C/O[C@@]2(C)Oc3c(C)c(O)c4c(O)c(c(/C=N/N5CCN(C)CC5)c(O)c4c3C2=O)NC(=O)/C(C)=C\C=C\[C@H](C)[C@H](O)[C@@H](C)[C@@H](O)[C@@H](C)[C@H](OC(C)=O)[C@@H]1C [rifanpin],good potency,,,
